This note sets out measurements from a melting point compilation (Tetko et al.; mined from patent text by program, amines drawn as free bases though some values may be those of a salt).

Each structure is given as a SMILES string.

Usually melting point stands for the temperature of the solid-liquid transition. In turn, `CCOC(=O)C(C)(OC)C(=O)Nc1cc(Cl)cc(Cl)c1` (stereo unspecified) came in with a melting point of 72 to 75 °C. For `COc1ccccc1-n1c(=O)[nH]c2c(C(N)=O)nc(-c3cccc(N)c3)nc21`, the melting point was 284 to 285 °C. For `ON=C(Cl)c1ccc(Cl)c(Cl)c1`, the melting point was 104 to 106 °C. On to `CCCc1nc2c(N)nc3cc(OCc4c(C)noc4C)ccc3c2s1`, for which the melting point was 178 to 180 °C.

`CC(C)=CCC/C(C)=C/Cn1c(CO)nc2ccccc21` yielded a melting point of 120 to 123 °C. For the molecule `CCOCc1cc2cc(Cl)ccc2oc1=Nc1cccc(OC)c1`, the melting point is 96.5 to 97.5 °C.

In turn, `OCCNCCCCCCNCCO` returned a melting point of 75 to 79 °C.

The molecule `CCCCCCC(=N)NC(=S)Nc1ccccc1Cl` displayed a melting point of 75 to 77 °C. Turning to `CN(Cc1ccccc1)c1cc(C(=O)O)ccc1C(N)C(=O)O` (stereo unspecified), the melting point is 193 °C. `CCCCCOC(=O)C1CC(Br)=NN1c1ncccc1Cl` (stereo unspecified): the melting point was in the range of 39 to 42 °C. Then `CC(C)(C)c1cc(CN(c2cccnc2)S(=O)(=O)c2ccc(F)cc2)cc(C(C)(C)C)c1O`, with 137 to 138 °C; and `CN(C)C(=O)Oc1ccc2c(c1)N(Cc1ccccc1)CCC2`, with 104 °C. Molecule `CC(C)(Oc1ccc(C(=O)CN2CCN(c3ccncc3)CC2)cc1)C(=O)O` displayed a melting point of 163 to 167 °C. `CCOC(=O)C1=C(C)NC(CSCCl)=C(C(=O)OCC)C1c1cccc([N+](=O)[O-])c1` (stereo unspecified) registered a melting point of 157 to 159 °C. Molecule `O=C(NCCCCC1CCSS1)NS(=O)(=O)NC(=O)NCCCCC1CCSS1` (stereo unspecified) gave a melting point of 153 to 156 °C. On to `O=c1cccc(-c2ccccc2)[nH]1`, for which the melting point was found to be 200 °C.

As for `COc1cc2c(cc1O)CCN(C(=O)NCCN(C(C)C)C(C)C)C2c1ccccc1` (stereo unspecified), the melting point was 91 to 92 °C. In turn, `COc1ccc(-c2noc3c2C(c2ccc(OC)c(O)c2)C2=C(COC2=O)N3)cc1` (stereo unspecified) gave a melting point of 219 to 221 °C. Turning to `COc1ccc(S(=O)(=O)n2ccc3ccnc(-c4ccco4)c32)cc1`, the melting point was 127 to 130 °C. Molecule `COC1OCC[C@@H]1NC(=O)[C@H](CC1CCCCC1)NC(=O)CNC(=O)COc1ccc2c(c1)Nc1ccccc1S2` (stereo partly specified) showed a melting point of 179 to 180 °C. `CCOc1cc2cc(CO)cc(-c3ccnc(-n4nc(C)c5ccccc5c4=O)c3)c2cc1OCC` displayed a melting point of 220 to 221 °C. `CCC1c2ccc(C)n2-c2ccc(F)cc2N1S(=O)(=O)c1ccc(O)c(C)c1` (stereo unspecified) showed a melting point of 199 to 201 °C.

`C[C@H]1C(=O)N[C@@H](Cc2c[nH]c3ccccc23)C(=O)N1OCc1ccccc1`: the melting point was 172 to 174 °C.

`CCN(CC)CC1CCCCN1CCNC(=O)N1c2cc(C)ccc2C(=O)Nc2cccnc21` (stereo unspecified) yielded a melting point of 183 to 185 °C. Take `CCS(=O)(=O)c1cc2c(c(C(=O)NCC3CCCN3C)c1)OCCO2` (stereo unspecified): the melting point fell in the range of 140 to 141 °C. `CC(CNC(=O)c1cccc(Oc2ccccc2)c1)N(O)C(N)=O` (stereo unspecified) returned a melting point of 189 to 190 °C. As to `Cc1csc2c1c(=O)oc(=O)n2Cc1ccccc1`, the melting point was found to be 183 °C.

With `COc1ccc(-c2cc(Br)c3cc(OC)ccc3n2)cc1`, the melting point fell in the range of 157 to 158 °C. The molecule `N#Cc1nc(-c2ccccc2)c(-c2ccccc2)nc1Cl` gave a melting point of 201 to 204 °C. With `COC(=O)c1c2c(c3cc(OC)c(OC)c(OC)c3c1-c1cc(OC)c(OC)c(OC)c1)OCOC2=O` the figure was 165 to 167 °C; with `COc1cc2c(cc1OC)[C@@H]1CCCC[C@@H]1N=C2c1ccc(C(=O)OCC2CC2)cc1` (racemic), 147 to 148 °C.

For the molecule `CC(C)(C)NCC(O)COc1ccc(-c2nc(C(F)(F)F)c[nH]2)cc1` (stereo unspecified), the melting point turned out to be 186 °C. With `CC12CCC(=O)C=C1CCC1C2=CCC2(C)C(=C=C(Cl)S(=O)c3ccccc3)CCC12` (stereo unspecified) the figure was 210 to 213 °C; with `CCC(CC)Nc1c([N+](=O)[O-])cc(C(C)C)c(C=CN(C)C)c1[N+](=O)[O-]`, 88 to 89.5 °C; with `CCc1nn(Cc2nnc(N)o2)c(CC)c1Oc1cc(Cl)cc(Cl)c1`, 226 to 228 °C. `Cc1[nH]c(=O)c(C#N)cc1-c1ccncc1` displayed a melting point greater than 300 °C. For `CS(=O)(=O)c1ccc(-c2c(C(=O)O)c3cccccc-3c2-c2ccccc2)cc1`, the melting point lay in the range of 168 to 169 °C.

Molecule `O=C(CCl)Nc1ccc2c(c1NC(=O)c1cccc(Cl)c1)C(=O)c1ccccc1C2=O` yielded a melting point of 188 to 189 °C. With `N#Cc1nn(-c2c(Cl)cc(C(F)(F)F)cc2Cl)cc1-c1cc(Br)no1` the figure was 145 °C; with `Cc1cc(C)nc(S(=O)(=O)c2ccccc2)c1`, 106 to 107 °C.

In the case of `C=CCc1cc(C(=O)OC)ccc1O`, the melting point lay within 78 to 82 °C. Turning to `Nc1ccc(Oc2cccc(C(F)(F)F)c2Cl)cc1`, the melting point is 65 to 66.5 °C. `COc1cc(OC)cc(N2CCN(C(=O)Nc3cc(C(C)(C)O)c(C)nc3OC)CC2)c1` came in with a melting point of 146 to 148 °C. Consider `Cn1cc(-c2ccncn2)cc(Br)c1=O`, for which the melting point lay in the range of 208 to 210 °C.

`Cn1cc(-c2cccc(C(F)(F)F)c2)c(=O)c(-c2ccc(Cl)cc2Cl)c1` came in with a melting point of 139 to 142 °C. In turn, `Cc1ccc(S(=O)(=O)OCC2Cc3cc(Cl)cc(-c4ccsc4)c3O2)cc1` (stereo unspecified) came in with a melting point of 115 to 117 °C.

The molecule `Cn1cc(-c2cccc(C3NCCc4c3sc3c4CC(C)(C)C3)c2CO)cc(Nc2cnn3c2COCC3)c1=O` (stereo unspecified) registered a melting point of 167 to 168 °C. For the molecule `COc1ccc(NC(=S)N2CCc3cc(S(=O)(=O)N4CC(c5ccccc5)NC4=O)ccc32)cc1` (stereo unspecified), the melting point was 181 to 183 °C. `CC(=O)N1CCN(c2c(F)cc3c(=O)c(C(=O)O)cn(C4CC4)c3c2C)CC1C` (stereo unspecified): the melting point fell in the range of 219 to 221 °C.

Turning to `COc1cncc(OC)c1C(=O)Nc1ccc(C[C@H](NC(=O)Nc2ccccc2S(=O)(=O)c2ccccc2)C(=O)O)cc1`, the melting point was found to be 196 °C.

`COc1ccccc1Oc1c(O)nc(-c2cccc(OCc3ccccc3)c2)nc1O` had a melting point of 192 to 195 °C. Regarding `CN1CCN(c2cccc3c2C[C@H](NC(=O)C2CCCCC2)CC3)CC1`, the melting point was in the range of 183 to 184 °C. `CCOc1cc2c(cc1OC)Cc1c([nH]cnc1=O)N2` gave a melting point of 318 to 320 °C. For the molecule `CNC(=O)C(=NOC)c1ccccc1COc1ccc(Cl)c(C(=O)OC(C)(C)C)n1`, the melting point lay within 103 to 108 °C. In turn, `CC1(C)Oc2ccc([N+](=O)[O-])cc2C(n2ccccc2=O)C1(C)O` (stereo unspecified) showed a melting point of 214 °C. `CCCCCCCCCCCCCCOc1ccc(OC(=O)N(C)Cc2ccccn2)cc1` gave a melting point of 67 to 68 °C. `Cc1nn(-c2cncc(F)c2)cc1[N+](=O)[O-]`: the melting point was 90 to 92 °C. For the molecule `CC(=O)OCCC1(C)CCc2c(C)c(OCc3ccccc3)c(C)c(C)c2O1` (stereo unspecified), the melting point was in the range of 58 to 62 °C. `O=c1c2ccccc2nnn1CCN1CCC(c2c[nH]c3ccccc23)CC1` displayed a melting point of 171 °C. `CCOc1cc2c(c3c1OC(C)(C)C3)C(c1ccccc1)=NC(C)(CN1C(=O)c3ccccc3C1=O)C2` (stereo unspecified) came in with a melting point of 187 to 189 °C. In turn, `COCCN1CCc2ccc(Nc3ncc4ccc(-c5ccccc5)n4n3)cc2CC1` displayed a melting point of 116 to 118 °C.
